Results reported in PubChem BioAssay (NCI).
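Exposure lasted 48 hours, with cells grown in 96-well plates and compounds tested at five concentrations. Here, GI50 denotes the concentration required for 50% inhibition of growth. The concentration for full growth arrest is given as TGI.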

Experiments:
Experiment in all cases: NCI tumour cell line growth inhibition, 48 h
OVCAR-8 ovarian = test system: OVCAR-8 ovarian
T-47D breast = test system: T-47D breast
K-562 leukemia = test system: K-562 leukemia
SR leukemia = test system: SR leukemia
SW-620 colon = test system: SW-620 colon
MALME-3M melanoma = test system: MALME-3M melanoma
LOX IMVI melanoma = test system: LOX IMVI melanoma
NCI/ADR-RES ovarian = test system: NCI/ADR-RES ovarian
PC-3 prostate = test system: PC-3 prostate
KM12 colon = test system: KM12 colon
MDA-MB-231 breast = test system: MDA-MB-231 breast
UACC-62 melanoma = test system: UACC-62 melanoma
SNB-75 CNS = test system: SNB-75 CNS
OVCAR-3 ovarian = test system: OVCAR-3 ovarian
786-0 renal = test system: 786-0 renal
BT-549 breast = test system: BT-549 breast
COLO 205 colon = test system: COLO 205 colon
HS 578T breast = test system: HS 578T breast
SF-295 CNS = test system: SF-295 CNS
CCRF-CEM leukemia = test system: CCRF-CEM leukemia
MCF7 breast = test system: MCF7 breast
TK-10 renal = test system: TK-10 renal
SK-OV-3 ovarian = test system: SK-OV-3 ovarian
HOP-62 NSCLC = test system: HOP-62 NSCLC
RXF 393 renal = test system: RXF 393 renal
UO-31 renal = test system: UO-31 renal
SF-268 CNS = test system: SF-268 CNS
HT29 colon = test system: HT29 colon
HOP-92 NSCLC = test system: HOP-92 NSCLC
A549 NSCLC = test system: A549 NSCLC
SNB-19 CNS = test system: SNB-19 CNS
SK-MEL-5 melanoma = test system: SK-MEL-5 melanoma
A498 renal = test system: A498 renal
HCT-116 colon = test system: HCT-116 colon
CAKI-1 renal = test system: CAKI-1 renal
UACC-257 melanoma = test system: UACC-257 melanoma
HL-60(TB) leukemia = test system: HL-60(TB) leukemia
IGROV1 ovarian = test system: IGROV1 ovarian
MDA-MB-435 = test system: MDA-MB-435
DU-145 prostate = test system: DU-145 prostate
NCI-H23 lung = test system: NCI-H23 lung
NCI-H522 lung = test system: NCI-H522 lung
HCC-2998 colon = test system: HCC-2998 colon
NCI-H460 lung = test system: NCI-H460 lung
HCT-15 colon = test system: HCT-15 colon
MOLT-4 leukemia = test system: MOLT-4 leukemia
U251 CNS = test system: U251 CNS
SN12C renal = test system: SN12C renal
OVCAR-4 ovarian = test system: OVCAR-4 ovarian
M14 melanoma = test system: M14 melanoma
RPMI-8226 leukemia = test system: RPMI-8226 leukemia
NCI-H226 lung = test system: NCI-H226 lung

Structure (SMILES): Clc1ccc2c(N3CCN(c4ccnc(NC5CCCCC5)n4)CC3)ccnc2c1
- GI50 (OVCAR-8 ovarian): 3.27 µM
- TGI (OVCAR-8 ovarian): 12.6 µM
- GI50 (T-47D breast): 2.11 µM
- TGI (T-47D breast): 5.5 µM
- GI50 (K-562 leukemia): 2.19 µM
- TGI (K-562 leukemia): 5.43 µM
- GI50 (SR leukemia): 1.83 µM
- TGI (SR leukemia): 4.48 µM
- GI50 (SW-620 colon): 1.68 µM
- TGI (SW-620 colon): 3.72 µM
- GI50 (MALME-3M melanoma): 1.98 µM
- TGI (MALME-3M melanoma): 4.02 µM
- GI50 (LOX IMVI melanoma): 1.92 µM
- TGI (LOX IMVI melanoma): 3.46 µM
- GI50 (NCI/ADR-RES ovarian): 2.44 µM
- TGI (NCI/ADR-RES ovarian): 6.66 µM
- GI50 (PC-3 prostate): 1.56 µM
- TGI (PC-3 prostate): 3.3 µM
- GI50 (KM12 colon): 2.16 µM
- TGI (KM12 colon): 4.49 µM
- GI50 (MDA-MB-231 breast): 2.01 µM
- TGI (MDA-MB-231 breast): 3.97 µM
- GI50 (UACC-62 melanoma): 1.7 µM
- TGI (UACC-62 melanoma): 3.26 µM
- GI50 (SNB-75 CNS): 2.16 µM
- TGI (SNB-75 CNS): 6.74 µM
- GI50 (OVCAR-3 ovarian): 1.74 µM
- TGI (OVCAR-3 ovarian): 3.49 µM
- GI50 (786-0 renal): 1.69 µM
- TGI (786-0 renal): 3.14 µM
- GI50 (BT-549 breast): 1.75 µM
- TGI (BT-549 breast): 3.31 µM
- GI50 (COLO 205 colon): 1.77 µM
- TGI (COLO 205 colon): 3.43 µM
- GI50 (HS 578T breast): 2.41 µM
- TGI (HS 578T breast): 8.08 µM
- GI50 (SF-295 CNS): 1.91 µM
- TGI (SF-295 CNS): 3.79 µM
- GI50 (CCRF-CEM leukemia): 2.07 µM
- TGI (CCRF-CEM leukemia): 6.07 µM
- GI50 (MCF7 breast): 1.76 µM
- TGI (MCF7 breast): 4.02 µM
- GI50 (TK-10 renal): 2.29 µM
- TGI (TK-10 renal): 5.16 µM
- GI50 (SK-OV-3 ovarian): 4.2 µM
- TGI (SK-OV-3 ovarian): 14 µM
- GI50 (HOP-62 NSCLC): 2.35 µM
- TGI (HOP-62 NSCLC): 5.73 µM
- GI50 (RXF 393 renal): 1.84 µM
- TGI (RXF 393 renal): 3.54 µM
- GI50 (UO-31 renal): 1.31 µM
- TGI (UO-31 renal): 2.87 µM
- GI50 (SF-268 CNS): 3.65 µM
- TGI (SF-268 CNS): 13.3 µM
- GI50 (HT29 colon): 1.85 µM
- TGI (HT29 colon): 4.06 µM
- GI50 (HOP-92 NSCLC): 1.68 µM
- TGI (HOP-92 NSCLC): 4.99 µM
- GI50 (A549 NSCLC): 3.17 µM
- TGI (A549 NSCLC): 10.8 µM
- GI50 (SNB-19 CNS): 2.47 µM
- TGI (SNB-19 CNS): 7.33 µM
- GI50 (SK-MEL-5 melanoma): 1.7 µM
- TGI (SK-MEL-5 melanoma): 3.14 µM
- GI50 (A498 renal): 1.79 µM
- TGI (A498 renal): 8.22 µM
- GI50 (HCT-116 colon): 1.36 µM
- TGI (HCT-116 colon): 2.8 µM
- GI50 (CAKI-1 renal): 2.21 µM
- TGI (CAKI-1 renal): 6.87 µM
- GI50 (UACC-257 melanoma): 1.95 µM
- TGI (UACC-257 melanoma): 4.11 µM
- GI50 (HL-60(TB) leukemia): 2.22 µM
- TGI (HL-60(TB) leukemia): 5.07 µM
- GI50 (IGROV1 ovarian): 2.27 µM
- TGI (IGROV1 ovarian): 5.04 µM
- GI50 (MDA-MB-435): 1.91 µM
- TGI (MDA-MB-435): 3.88 µM
- GI50 (DU-145 prostate): 3.78 µM
- TGI (DU-145 prostate): 13 µM
- GI50 (NCI-H23 lung): 3.4 µM
- TGI (NCI-H23 lung): 9.71 µM
- GI50 (NCI-H522 lung): 1.97 µM
- TGI (NCI-H522 lung): 3.84 µM
- GI50 (HCC-2998 colon): 1.93 µM
- TGI (HCC-2998 colon): 3.88 µM
- GI50 (NCI-H460 lung): 2.05 µM
- TGI (NCI-H460 lung): 4.23 µM
- GI50 (HCT-15 colon): 2.26 µM
- TGI (HCT-15 colon): 6.74 µM
- GI50 (MOLT-4 leukemia): 2.13 µM
- TGI (MOLT-4 leukemia): 5.47 µM
- GI50 (U251 CNS): 1.62 µM
- TGI (U251 CNS): 3 µM
- GI50 (SN12C renal): 1.79 µM
- TGI (SN12C renal): 3.6 µM
- GI50 (OVCAR-4 ovarian): 2.56 µM
- TGI (OVCAR-4 ovarian): 11.2 µM
- GI50 (M14 melanoma): 1.78 µM
- TGI (M14 melanoma): 3.42 µM
- GI50 (RPMI-8226 leukemia): 1.81 µM
- TGI (RPMI-8226 leukemia): 4.69 µM
- GI50 (NCI-H226 lung): 3.41 µM
- TGI (NCI-H226 lung): 16.6 µM
